Numbers after ± are expanded uncertainties.
How the values were obtained:
[1] = mn = molality of the nth substance listed, in mol/kg; details: 298.15 K, 101 kPa, Liquid; for viscosity: Capillary tube (Ostwald / Ubbelohde) method; for mass density: Vibrating tube method
[2] = cn = amount concentration of the nth substance listed, in mol/dm3; details: 298.15 K, 101 kPa, Liquid

NCC(=O)N[C@@H](CCC(N)=O)C(=O)O [glycyl-l-glutamine] + O
[1]
Details	mass density [kg/m3]	viscosity [mPa·s]
m1 = 0.03879	1000.01 ± 0.096	–
m1 = 0.05	–	0.913 ± 0.037
m1 = 0.06116	1001.7 ± 0.096	–
m1 = 0.08141	1003.22 ± 0.095	–
m1 = 0.1	–	0.936 ± 0.038
m1 = 0.1008	1004.66 ± 0.095	–
m1 = 0.1497	1008.28 ± 0.095	–
m1 = 0.15	–	0.961 ± 0.039
m1 = 0.1987	1011.85 ± 0.095	–
m1 = 0.2	–	0.985 ± 0.04
m1 = 0.2522	1015.68 ± 0.095	–

C[C@H](N)C(=O)N[C@@H](CCC(N)=O)C(=O)O [L-alanyl-L-glutamine] + O
[1]
Details	mass density [kg/m3]	viscosity [mPa·s]
m1 = 0.0401	999.957 ± 0.093	–
m1 = 0.05	–	0.918 ± 0.037
m1 = 0.08086	1002.88 ± 0.093	–
m1 = 0.1	–	0.948 ± 0.038
m1 = 0.1012	1004.32 ± 0.092	–
m1 = 0.148	1007.6 ± 0.092	–
m1 = 0.15	–	0.978 ± 0.04
m1 = 0.2	–	1.008 ± 0.041
m1 = 0.2002	1011.17 ± 0.092	–
m1 = 0.2448	1014.22 ± 0.091	–
m1 = 0.2993	1017.77 ± 0.091	–

CC(=O)[O-].[Na+] [sodium ethanoate] + O
[2]
Details	molar conductivity [S·m2/mol]
c1 = 0.0002726	0.0088 ± 8.8e-05
c1 = 0.0004823	0.008807 ± 8.8e-05
c1 = 0.0007722	0.008806 ± 8.8e-05
c1 = 0.0009672	0.00879 ± 8.8e-05
c1 = 0.001191	0.00877 ± 8.8e-05
c1 = 0.001382	0.00872 ± 8.7e-05
c1 = 0.001567	0.008739 ± 8.7e-05
c1 = 0.001787	0.00872 ± 8.7e-05
c1 = 0.002055	0.008701 ± 8.7e-05
c1 = 0.002254	0.00869 ± 8.7e-05
c1 = 0.002454	0.00867 ± 8.7e-05
c1 = 0.003305	0.00849 ± 8.5e-05
c1 = 0.00463	0.00842 ± 8.4e-05
c1 = 0.006134	0.008351 ± 8.3e-05
c1 = 0.007784	0.00829 ± 8.3e-05
c1 = 0.008716	0.00826 ± 8.3e-05
c1 = 0.01014	0.008207 ± 8.2e-05
c1 = 0.01138	0.00817 ± 8.2e-05
c1 = 0.01268	0.008135 ± 8.1e-05
c1 = 0.01404	0.008103 ± 8.1e-05
c1 = 0.01528	0.00808 ± 8.1e-05
c1 = 0.01648	0.00806 ± 8.1e-05
c1 = 0.01789	0.00802 ± 8e-05
c1 = 0.01915	0.008 ± 8e-05
c1 = 0.02025	0.00797 ± 8e-05
c1 = 0.02164	0.007945 ± 7.9e-05
c1 = 0.02337	0.007911 ± 7.9e-05
c1 = 0.02523	0.00787 ± 7.9e-05
c1 = 0.02696	0.007849 ± 7.8e-05

CCCC(=O)[O-].[Na+] [sodium butyrate] + O
[2]
Details	molar conductivity [S·m2/mol]
c1 = 0.0003234	0.00796 ± 8e-05
c1 = 0.001116	0.00795 ± 7.9e-05
c1 = 0.001273	0.007936 ± 7.9e-05
c1 = 0.001488	0.007915 ± 7.9e-05
c1 = 0.00188	0.00788 ± 7.9e-05
c1 = 0.00243	0.007842 ± 7.8e-05
c1 = 0.002454	0.00787 ± 7.9e-05
c1 = 0.003167	0.00766 ± 7.7e-05
c1 = 0.006298	0.007526 ± 7.5e-05
c1 = 0.008849	0.007443 ± 7.4e-05
c1 = 0.01124	0.00737 ± 7.4e-05
c1 = 0.01353	0.007315 ± 7.3e-05
c1 = 0.0155	0.00727 ± 7.3e-05
c1 = 0.01721	0.007239 ± 7.2e-05
c1 = 0.01916	0.007203 ± 7.2e-05
c1 = 0.02091	0.00717 ± 7.2e-05
c1 = 0.02284	0.007137 ± 7.1e-05
c1 = 0.02481	0.0071 ± 7.1e-05
c1 = 0.02647	0.00707 ± 7.1e-05

— the NIST ThermoML archive (doi:10.1016/j.jct.2009.06.010)
